From ChEMBL document CHEMBL2028040, “Malaria Box”

Assays:
[1] = test system: Trypanosoma brucei brucei; assay: MMV: Inhibition of Trypanosoma brucei brucei (Squib 427) (HAT in vitro).; assay type: functional, organism-based
Plasmodium falciparum = assay: MMV: Inhibition of Plasmodium falciparum 3D7 at 5uM compound concentration.; assay type: functional
[2] = test system: Trypanosoma brucei rhodesiense; assay: MMV: Inhibition of Trypanosoma brucei rhodesiense (STIB 900) (HAT in vitro).; assay type: functional, organism-based
Leishmania infantum = assay: MMV: Inhibition of Leishmania infantum (MHOM/MA/BE/67) in vitro.; assay type: functional, organism-based
[3] = MMV: Cytotoxicity against human fibroblasts (MRC-5) cells.; settings: MRC-5 cells (human fibroblasts)
Trypanosoma cruzi = assay: MMV: Inhibition of Trypanosoma cruzi (Tulahuen C4 LacZ) (Chagas in vitro).; assay type: functional, organism-based

SMILES: COc1ccc(-c2cc3c(nn2)-c2ccccc2C3=O)cc1
- IC50 [1]: > 32 µM
- inhibition at 5 µM (Plasmodium falciparum): 97%
- IC50 [2]: > 32 µM
- IC50 (Leishmania infantum): > 32 µM
- IC50 [3]: > 32 µM
- IC50 (Trypanosoma cruzi): > 32 µM

SMILES: FC(F)(F)c1ccc(Nc2nnnc3ccccc23)cc1
- IC50 [1]: > 32 µM
- inhibition at 5 µM (Plasmodium falciparum): 77%
- IC50 [2]: > 32 µM
- IC50 (Leishmania infantum): > 32 µM
- IC50 [3]: > 32 µM
- IC50 (Trypanosoma cruzi): > 32 µM

SMILES: O=C(NC1CCCC1)c1ccc(N2CCC(NCc3cccc(C(F)(F)F)c3)CC2)cc1
- IC50 [1]: > 32 µM
- inhibition at 5 µM (Plasmodium falciparum): 93%
- IC50 [2]: 14.4 µM
- IC50 (Leishmania infantum): 16.6 µM
- IC50 [3]: > 32 µM
- IC50 (Trypanosoma cruzi): 21.3 µM

SMILES: N=c1c2ccccc2nnn1-c1cccc(C(F)(F)F)c1
- IC50 [1]: > 32 µM
- inhibition at 5 µM (Plasmodium falciparum): 83%
- IC50 [2]: > 32 µM
- IC50 (Leishmania infantum): > 32 µM
- IC50 [3]: > 32 µM
- IC50 (Trypanosoma cruzi): > 32 µM

SMILES: Cc1ccc(OCCCCCCNCCO)c(C)c1
- IC50 [1]: 3.72 µM
- inhibition at 5 µM (Plasmodium falciparum): 49%
- IC50 [2]: 3.94 µM
- IC50 (Leishmania infantum): 16.1 µM
- IC50 [3]: > 32 µM
- IC50 (Trypanosoma cruzi): 16 µM

SMILES: O=C(c1ccccc1F)N(Cc1ccc(Cl)cc1)c1ccccn1
- IC50 [1]: > 32 µM
- inhibition at 5 µM (Plasmodium falciparum): 59%
- IC50 [2]: > 32 µM
- IC50 (Leishmania infantum): > 32 µM
- IC50 [3]: > 32 µM
- IC50 (Trypanosoma cruzi): > 32 µM

SMILES: COCCn1c(C)nc2ccccc2c1=O
- IC50 [1]: > 32 µM
- inhibition at 5 µM (Plasmodium falciparum): 59%
- IC50 [2]: > 32 µM
- IC50 (Leishmania infantum): > 32 µM
- IC50 [3]: > 32 µM
- IC50 (Trypanosoma cruzi): > 32 µM

SMILES: O=C(Nc1ccc(Cl)cc1)N1CCN(c2ccc3nncn3n2)CC1
- IC50 [1]: > 32 µM
- inhibition at 5 µM (Plasmodium falciparum): 62%
- IC50 [2]: > 32 µM
- IC50 (Leishmania infantum): > 32 µM
- IC50 [3]: > 32 µM
- IC50 (Trypanosoma cruzi): > 32 µM

SMILES: O=C(CSc1ccc2nnc(-c3cccc(F)c3)n2n1)Nc1ccc2c(c1)OCO2
- IC50 [1]: > 32 µM
- inhibition at 5 µM (Plasmodium falciparum): 92%
- IC50 [2]: > 32 µM
- IC50 (Leishmania infantum): > 32 µM
- IC50 [3]: > 32 µM
- IC50 (Trypanosoma cruzi): > 32 µM

SMILES: Cc1ccc(CN2CCC(C(=O)Nc3ccc(-c4cc5ccccc5[nH]4)cc3)CC2)o1
- IC50 [1]: 3.33 µM
- inhibition at 5 µM (Plasmodium falciparum): 77%
- IC50 [2]: 0.971 µM
- IC50 (Leishmania infantum): 13.6 µM
- IC50 [3]: 15.7 µM
- IC50 (Trypanosoma cruzi): 15.9 µM

SMILES: O=C(Nc1ccsc1C(=O)NC1CCCCC1)c1ccc(F)cc1
- IC50 [1]: > 32 µM
- inhibition at 5 µM (Plasmodium falciparum): 86%
- IC50 [2]: > 32 µM
- IC50 (Leishmania infantum): > 32 µM
- IC50 [3]: > 32 µM
- IC50 (Trypanosoma cruzi): > 32 µM

SMILES: O=C(Nc1ccc(Cl)cc1C(=O)Nc1ccncc1)c1ccc(Cl)cc1Cl
- IC50 [1]: > 32 µM
- inhibition at 5 µM (Plasmodium falciparum): 94%
- IC50 [2]: > 32 µM
- IC50 (Leishmania infantum): > 32 µM
- IC50 [3]: > 32 µM
- IC50 (Trypanosoma cruzi): > 32 µM

SMILES: COc1ccc(N2CCN(C(CNC(=O)CC(C)(C)C)c3ccc4c(c3)OCO4)CC2)cc1 (centres undefined)
- IC50 [1]: > 32 µM
- inhibition at 5 µM (Plasmodium falciparum): 95%
- IC50 [2]: 27.6 µM
- IC50 (Leishmania infantum): > 32 µM
- IC50 [3]: > 32 µM
- IC50 (Trypanosoma cruzi): 19.7 µM

SMILES: O=C(Nc1ccccc1O)c1ccc(-c2ccc(Cl)cc2Cl)o1
- IC50 [1]: 13.7 µM
- inhibition at 5 µM (Plasmodium falciparum): 97%
- IC50 [2]: 13.5 µM
- IC50 (Leishmania infantum): > 32 µM
- IC50 [3]: > 32 µM
- IC50 (Trypanosoma cruzi): > 32 µM

SMILES: Oc1ccc(C(=C(Cl)Cl)c2ccc(O)cc2)cc1
- IC50 [1]: > 32 µM
- inhibition at 5 µM (Plasmodium falciparum): 95%
- IC50 [2]: > 32 µM
- IC50 (Leishmania infantum): > 32 µM
- IC50 [3]: > 32 µM
- IC50 (Trypanosoma cruzi): > 32 µM

SMILES: CCOc1ccc(-c2nc(NC(=O)c3cccc(S(C)(=O)=O)c3)sc2C)cc1
- IC50 [1]: 14.9 µM
- inhibition at 5 µM (Plasmodium falciparum): 95%
- IC50 [2]: 15.3 µM
- IC50 (Leishmania infantum): > 32 µM
- IC50 [3]: > 32 µM
- IC50 (Trypanosoma cruzi): > 32 µM

SMILES: COc1ccccc1N1CCN(C(CNS(=O)(=O)c2ccc(Cl)cc2)c2cccnc2)CC1 (centres undefined)
- IC50 [1]: 16.2 µM
- inhibition at 5 µM (Plasmodium falciparum): 93%
- IC50 [2]: 16.2 µM
- IC50 (Leishmania infantum): > 32 µM
- IC50 [3]: > 32 µM
- IC50 (Trypanosoma cruzi): 0.899 µM

SMILES: OC1CCCCC1C1(NC(=S)Nc2ccccc2)CCCCC1 (centres undefined)
- IC50 [1]: 12.4 µM
- inhibition at 5 µM (Plasmodium falciparum): 59%
- IC50 [2]: 4.12 µM
- IC50 (Leishmania infantum): 4.32 µM
- IC50 [3]: > 32 µM
- IC50 (Trypanosoma cruzi): 12.2 µM

SMILES: CCN(CC)CCCNc1nc(-c2ccc(Cl)cc2)nc2ccccc12
- IC50 [1]: 0.271 µM
- inhibition at 5 µM (Plasmodium falciparum): 92%
- IC50 [2]: 0.25 µM
- IC50 (Leishmania infantum): 4 µM
- IC50 [3]: 15.8 µM
- IC50 (Trypanosoma cruzi): 8.56 µM
